The results in this text go back to patent publication US20240139205A1, “MODULATORS OF ARALAR FOR TREATING NEUROLOGICAL DISORDERS” (Universite de Lausanne, priority 2020, published 2024).

Assay [1] relates to Cyfip^85.1/+ flies. Description: competition for food assay (total number of social events) in Cyfip haploinsufficient flies. It is filed as in vivo, Drosophila. To be noted: Cyfip^85.1/+ flies; Diazepam 50 μM in food, 1 day. The protocol:
Experiments were performed with socially experienced, 3-7 days-old male flies. Groups of eight males from the same genotype were anesthetized 24 h prior to the assay and placed in vials with food. On the day of the assay, the males were transferred without anesthesia to an empty vial and were deprived of food for 90 minutes, after which they were exposed to a food droplet and given 2 minutes to acclimate to this disturbance. The flies were then observed simultaneously for an additional 2 minutes, and the total number of social events was scored. Monitored social events were i.e. approaches, lunges, tussles, wing threat and the initiation of courtship. Of note, one interaction involving two or more flies was counted as one social event in total (Zwarts (2011), PNAS 108, 17070-17075. The behavioral assays were conducted in a behavioral chamber (25° C., 60-70% humidity) between 8 a.m. and 11 a.m. Statistics were calculated using a one-way fixed effect ANOVA model, and Kruskal Wallis test in combination with Dunn's multiple comparison test.
Example 8. GABA augmentation fully normalizes the behavioral abnormalities of Cyfip^85.1/+ flies. GABA levels were augmented in Cyfip^85.1/+ flies in three distinct ways: flies were fed either GABA, DL-2,4-diaminobutyric acid (DABA) which is a GABA-transaminase inhibitor and/or a GABA reuptake inhibitor or the anticonvulsant valproic acid (VPA) which induces GABA release (Chateauvieux (2010), Journal of biomedicine & biotechnology 2010; Coghlan (2012), Neurosci Biobehav Rev 36, 2044-2055; Reynolds (2007), Current medicinal chemistry 14, 2799-2812). All compounds were purchased from Sigma-Aldrich and were used as described before (Kanellopoulos (2012), J Neurosci. 32(38):13111-24; Zwarts (2011), PNAS 108, 17070-17075). In brief, the drugs were dissolved as per the manufacturer's instructions and used at the following concentrations: GABA at 50 μM, DABA 100 μM, Valproic acid (VPA) at 1 mM and Diazepam at 50 μM. Compounds in solution were mixed with Formula 4-24® Instant Drosophila Medium (blue food) in water. Approximately 50-60 adult flies were placed in plastic vials containing 500 μl of each solution on top of an agar matrix and allowed to feed ad libitum before behaviour analysis. Vehicle treatment consisted of solvent added to blue food alone.
Example 16. Drug screening to identify compounds that ameliorate social behavior deficits in flies with Cyfip haploinsufficiency. Control (w1118) or CYFIP (Cyfip^85.1/+) flies were treated, i.e. fed, with various compounds from the Prestwick Chemical Library® as described in Examples 8 and 15. All compounds were used at a concentration of 50 μM. The total number of social interactions was analyzed in a competition for food assay at various time-points (1, 2 or 5 days) of treatment with the compound or vehicle controls as described in Example 2.

For assay [2], the system named is Cyfip1+/− mice. As to the kind of experiment: three-chamber test (sociability and social novelty) in Cyfip1+/− mice. It is filed as in vivo, mouse. To be noted: for social preference deficit (sociability index, stranger 1 vs object): acute diazepam i.p. 0.2 mg/ml at 1% of bodyweight, 30 min prior to test. Here is the method:
Sociability and social novelty were evaluated using the three-chamber test previously described (Crawley (2007), Brain Pathology 17(4), 448-459). Briefly, the set-up consisted of a rectangular non-transparent Plexiglas box divided into three compartments, separated by two partitions (each compartment: 30×19×21 cm). These partitions contained a small passage in the middle (8×7 cm; that can be sealed with small guillotine doors), which allowed the mouse to transition between adjacent compartments. During the acclimation phase, mice were allowed to explore the empty central compartment for 5 min. At the start of the test, both sliding doors were closed and each of the outer compartments were equipped with a wired cage (10 cm diameter, 20 cm high), one containing an object (50 ml Falcon Tube or a glue stick) and the other containing a mouse (i.e. stranger 1). Holding cages were used to avoid inter-male fighting but allow visual and olfactory contact between mice. During the sociability phase, the guillotine doors were removed and mice could freely explore the entire set-up for 10 min. It is expected from healthy mice that more interest is shown towards another mouse compared to an object. After 10 min, mice were placed into an empty housing cage, and the holding cage containing the object was replaced by a holding cage containing a novel mouse (i.e. stranger 2). During the next phase (social memory), the stranger 1 mouse has become familiar and it is expected that healthy mice show more interest towards the stranger 2 mouse compared to the stranger 1 mouse. The guillotine doors were removed and mice were allowed to explore the set-up for another 10 min. The location of the stranger 1 and stranger 2 mice was counterbalanced between animals and the box was cleaned with 70% EtOH solution after each animal. All stranger mice used were of the same sex as the tested mouse and had never been in contact with the test mice. Mice were recorded with a camera and were tracked with Ethovision software (Noldus, Wageningen, The Netherlands). Time spent in close proximity (<2 cm) to the holding cages was recorded. Preference index was calculated as: Time stranger 1/(Time stranger 1+Time object) and Timestranger 2/(Timestranger 1+Timestranger 2) for sociability and social memory/social novelty, respectively.
Diazepam, a GABA-A positive modulator, was purchased from Roche (Basel, Switzerland) (diazepam already dissolved in saline at a concentration of 5 mg/ml). Diazepam was further diluted in saline and adjusted to the dose of 0.2 mg/ml. Mice were first tested in the three-chamber test in control conditions. 72 h afterwards, all mice were administered intraperitoneally with diazepam at 1% of bodyweight 30 min prior to re-testing. […]

Assay [3] relates to WT mice. Description: three-chamber test (sociability) in WT mice. To be noted: acute diazepam i.p. 0.2 mg/ml at 1% of bodyweight, 30 min prior to test. It counts as in vivo, mouse. The protocol: Sociability and social novelty were evaluated using the three-chamber test previously described (Crawley (2007), Brain Pathology 17(4), 448-459). Briefly, the set-up consisted of a rectangular non-transparent Plexiglas box divided into three compartments, separated by two partitions (each compartment: 30×19×21 cm). These partitions contained a small passage in the middle (8×7 cm; that can be sealed with small guillotine doors), which allowed the mouse to transition between adjacent compartments. During the acclimation phase, mice were allowed to explore the empty central compartment for 5 min. At the start of the test, both sliding doors were closed and each of the outer compartments were equipped with a wired cage (10 cm diameter, 20 cm high), one containing an object (50 ml Falcon Tube or a glue stick) and the other containing a mouse (i.e. stranger 1). Holding cages were used to avoid inter-male fighting but allow visual and olfactory contact between mice. […] Mice were recorded with a camera and were tracked with Ethovision software (Noldus, Wageningen, The Netherlands). Time spent in close proximity (<2 cm) to the holding cages was recorded. Preference index was calculated as: Time stranger 1/(Time stranger 1+Time object) and Timestranger 2/(Timestranger 1+Timestranger 2) for sociability and social memory/social novelty, respectively. […]

Turning to `CN1C(=O)CN=C(c2ccccc2)c2cc(Cl)ccc21` [diazepam], the “social deficits (social events)” value in assay [1] was “restored the social deficits”. In addition, the “increase in social preference after treatment (within-subject, control vs diazepam-treated)” value in assay [2] (acute diazepam i.p.) is “approximately 50%”. Also, the “social preference deficit (sociability index, stranger 1 vs object)” value in assay [2] was “rescued the social preference deficit”; in assay [2] (listed as Diazepam), “restores deficits in social behavior”. For the same compound, the “preference for the novel mouse (social novelty index)” value in assay [2] (acute diazepam i.p., genotype difference not statistically significant) is given as “slightly increase”. For the same compound, the “social preference (sociability index)” value in assay [3] is given as “slight decrease in social preference”.
